From US8741836B2, “Polypeptides” (Novo Nordisk A/S, priority 2011, dated 2014)
Where two headings read alike, the source gives them in different places. Starred links: 1 amine or outer side, 2 acyl side, 3 side chain; linkers in the order of their positions; H or OH if unused. Positions of bridges follow the written chain, without caps; N, C: chain ends. Residues, ends and D or L forms follow the SMILES beside them. Groups on a side chain read outwards from the residue. *: point of attachment. C20 diacid = O=C(O)CCCCCCCCCCCCCCCCCCC(=O)*; C18 diacid = O=C(O)CCCCCCCCCCCCCCCCC(=O)*; γGlu = O=C(O)[C@H](CCC(=O)[*:2])N[*:1]; AEEA = NCCOCCOCC(=O)O

Experiments:
[1] = biological target: T1, human amylin 3(a) receptor (human calcitonin receptor + RAMP-3) (Homo sapiens, UniProt O60896+P30988); experiment: Assay (II)a functional assay, human amylin receptor (CRE luciferase reporter in BHK cells); assay type: cell-based
T1 construct: expressed in transfected cells; CRE-luciferase reporter
T1 sequence (P30988 25-474): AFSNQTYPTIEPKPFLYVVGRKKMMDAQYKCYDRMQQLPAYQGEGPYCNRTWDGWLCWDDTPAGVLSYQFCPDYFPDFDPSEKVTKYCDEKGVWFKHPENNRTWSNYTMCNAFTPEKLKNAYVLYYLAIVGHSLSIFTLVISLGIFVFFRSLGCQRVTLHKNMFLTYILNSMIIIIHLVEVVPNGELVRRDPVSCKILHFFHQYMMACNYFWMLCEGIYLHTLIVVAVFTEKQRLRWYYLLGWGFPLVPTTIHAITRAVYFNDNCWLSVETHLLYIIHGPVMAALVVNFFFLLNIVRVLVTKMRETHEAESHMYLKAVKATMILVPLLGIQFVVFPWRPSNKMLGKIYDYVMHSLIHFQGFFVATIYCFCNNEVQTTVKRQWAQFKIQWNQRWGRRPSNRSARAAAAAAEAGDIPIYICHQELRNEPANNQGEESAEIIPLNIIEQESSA
T1 sequence (O60896 24-148 partner): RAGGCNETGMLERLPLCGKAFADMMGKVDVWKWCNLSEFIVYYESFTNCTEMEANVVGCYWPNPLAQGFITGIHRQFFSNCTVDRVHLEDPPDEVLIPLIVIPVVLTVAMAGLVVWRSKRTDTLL
Text: (§1) 1. Luciferase Assay Outline
(§2) Activation of calcitonin and amylin (coexpression of calcitonin receptor and receptor activity modifying proteins (RAMP)) receptors lead to increased intracellular concentrations of cAMP. Consequently, transcription is activated by promoters containing multiple copies of the cAMP response element (CRE). It is thus possible to measure amylin activity by the use of a CRE luciferase reporter gene introduced into BHK cells also expressing calcitonin or amylin receptors.
(§3) A BHK570 cell line was stably transfected with the human calcitonin receptor and a CRE-responsive luciferase reporter gene. The cell line was further transfected with RAMP-3, using standard methods. This turns the calcitonin receptor into an amylin 3(a) receptor. Methotrexate, Neomycin, and Hygromycin are selection markers for luciferase, the calcitonin receptor, and RAMP-3, respectively.
(§4) To perform activity assays, BHK calcitonin (a) receptor- or amylin 3(a)-receptor/CRE-luc cells were seeded in white 96 well culture plates at a density of about 20.000 cells/well. […] After incubation overnight at 37° C. and 5% CO2, the growth medium was replaced by 50 μl/well assay medium (DMEM (without phenol red), Glutamax™, 10% FBS, and 10 mM Hepes, pH 7.4). Further, 50 μl/well of standard or sample in assay buffer were added. After 3 hours incubation at 37° C. and 5% CO2, the assay medium with standard or sample were removed and replaced by 100 μl/well PBS. Further, 100 μl/well LucLite™ was added. The plates were sealed and incubated at room temperature for 30 minutes. Finally, luminescence was measured on a TopCounter (Packard) in SPC (single photon counting) mode.

[2] = biological target: T2, human calcitonin receptor (Homo sapiens, UniProt P30988); experiment: Assay (II)a functional assay, human calcitonin receptor (CRE luciferase reporter in BHK cells); assay type: cell-based
T2 construct: expressed in transfected cells; CRE-luciferase reporter
T2 sequence (P30988 25-474): T1 sequence (P30988 25-474)
Text: as §1, §2, §3, §4

[3] = Assay (III) ThT fibrillation assay for physical stability; assay type: physicochemical
Method in brief: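 Freshly prepared, pH-adjusted formulations with 1 μM ThT incubated at 37 °C under 960 rpm orbital shaking (1 mm), fluorescence (ex 444, em 485 nm) read every 20 min. […] Peptide content before and after measured by reverse-phase HPLC against pramlintide standard.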

[4] = tested on: ad libitum fed rat; experiment: Assay (I) efficacy testing on appetite (food intake) using an ad libitum fed rat model; assay type: in vivo, Sprague Dawley (SD) rats; conditions: 3 nmol/kg
Method in brief: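 Ad libitum fed Sprague Dawley rats, 200-250 g, singly housed on reversed light cycle, got one ip, po or sc dose of 0.01-3 mg/kg just before lights off; groups of 5-8 with vehicle control. Food intake recorded hourly for 7 h, then at 24 h and sometimes 48 h; Grubbs outliers excluded.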

[5] = Assay (IV) determination of solubility; assay type: physicochemical
Method: Assay (IV)—Determination of Solubility
The polypeptide was dissolved in water at −500 nmol/ml and mixed 1:1 with a series of buffers (100 mM glycylglycine pH 3.0, 100 mM glycylglycine pH 4.0, 100 mM glycylglycine pH 5.0, 100 mM bistrispropane pH 6.0, 100 mM bistrispropane pH 6.5, 100 mM bistrispropane pH 7.0, 100 mM bistrispropane pH 7.5, 100 mM bistrispropane pH 8.0). After 18 hours at room temperature the samples were centrifuged and the polypeptide concentration determined by HPLC.

[6] = Table 7, human calcitonin (CTa) receptor
[7] = Table 11, human amylin receptor
[8] = Table 11, human calcitonin receptor, read-out: CTa receptor human EC50

CC[C@H](C)[C@H](NC(=O)[C@@H]1CCCN1C(=O)CNC(=O)[C@H](CC(C)C)NC(=O)[C@H](CCC(=O)O)NC(=O)[C@H](CCC(N)=O)NC(=O)[C@@H](NC(=O)[C@H](C)NC(=O)[C@H](CCCNC(=N)N)NC(=O)[C@H](Cc1c[nH]cn1)NC(=O)[C@H](CC(C)C)NC(=O)[C@H](Cc1ccccc1)NC(=O)[C@H](CCC(=O)O)NC(=O)[C@H](C)NC(=O)[C@H](CC(C)C)NC(=O)[C@H](CCCNC(=N)N)NC(=O)[C@H](CCC(N)=O)NC(=O)[C@@H](NC(=O)[C@H](C)NC(=O)[C@@H]1CSSC[C@H](NC(=O)[C@H](Cc2c[nH]cn2)NC(=O)COCCOCCNC(=O)COCCOCCNC(=O)CC[C@H](NC(=O)CCCCCCCCCCCCCCCCCCC(=O)O)C(=O)O)C(=O)N[C@@H](CC(N)=O)C(=O)N[C@@H]([C@@H](C)O)C(=O)N[C@@H](C)C(=O)N[C@@H]([C@@H](C)O)C(=O)N1)[C@@H](C)O)[C@@H](C)O)C(=O)N[C@@H](CC(C)C)C(=O)N1CCC[C@H]1C(=O)N1CCC[C@H]1C(=O)N[C@H](C(=O)N[C@@H](CC(N)=O)C(=O)N[C@H](C(=O)NCC(=O)N[C@@H](CO)C(=O)N[C@@H](CC(N)=O)C(=O)N[C@H](C(=O)N[C@@H](Cc1ccc(O)cc1)C(N)=O)[C@@H](C)O)C(C)C)[C@@H](C)O [Example 23] ({C20 diacid-γGlu-AEEA-AEEA}-HCNTATCATQRLAEFLHRATQELGPILPPTNVGSNTY-NH2; disulfide 2-7)
EC50 ([1]; Table 6, human amylin receptor): 0.385 nM
EC50 [2, 6]: 0.492 nM

CC[C@H](C)[C@H](NC(=O)[C@@H]1CCCN1C(=O)CNC(=O)[C@H](Cc1ccccc1)NC(=O)[C@H](CC(N)=O)NC(=O)[C@H](CCC(N)=O)NC(=O)[C@H](CO)NC(=O)[C@H](CO)NC(=O)[C@H](Cc1c[nH]cn1)NC(=O)[C@H](Cc1c[nH]cn1)NC(=O)[C@H](CC(C)C)NC(=O)[C@H](Cc1ccccc1)NC(=O)[C@H](CCC(=O)O)NC(=O)[C@H](C)NC(=O)[C@H](CC(C)C)NC(=O)[C@H](CCCNC(=N)N)NC(=O)[C@H](CCC(N)=O)NC(=O)[C@@H](NC(=O)[C@H](C)NC(=O)[C@@H]1CSSC[C@H](NC(=O)[C@H](CCCCN)NC(=O)CC[C@H](NC(=O)CCCCCCCCCCCCCCCCCCC(=O)O)C(=O)O)C(=O)N[C@@H](CC(N)=O)C(=O)N[C@@H]([C@@H](C)O)C(=O)N[C@@H](C)C(=O)N[C@@H]([C@@H](C)O)C(=O)N1)[C@@H](C)O)C(=O)N[C@@H](CC(C)C)C(=O)N1CCC[C@H]1C(=O)N1CCC[C@H]1C(=O)N[C@H](C(=O)N[C@@H](CC(N)=O)C(=O)N[C@H](C(=O)NCC(=O)N[C@@H](CO)C(=O)N[C@@H](Cc1c[nH]cn1)C(=O)N[C@H](C(=O)N[C@@H](Cc1ccc(O)cc1)C(N)=O)[C@@H](C)O)C(C)C)[C@@H](C)O [Example 117, N-alpha-[(S)-4-Carboxy-4-(19-carboxynonadecanoylamino)butyryl]-[Glu14,His17,Gln21,His35)-pramlintide] ({C20 diacid-γGlu}-KCNTATCATQRLAEFLHHSSQNFGPILPPTNVGSHTY-NH2; disulfide 2-7)
ThT pH 4.0 lag time (physical stability in fibrillogenesis assay) ([3]; pH 4.0): >45 h
ThT pH 4.0 lag time ([3]; pH 4.0, ThT fibrillation assay): >45 h
Food intake reduction 0-24 h 3 nmol/kg (%) ([4]; 0-24 h): 50%
Food intake reduction 24-48 h 3 nmol/kg (%) ([4]; 24-48 h): 35%

CC[C@H](C)[C@H](NC(=O)[C@H](CCCCNC(=O)COCCOCCNC(=O)COCCOCCNC(=O)CC[C@H](NC(=O)CCCCCCCCCCCCCCCCC(=O)O)C(=O)O)NC(=O)CNC(=O)[C@H](Cc1ccccc1)NC(=O)[C@H](CC(N)=O)NC(=O)[C@H](CC(N)=O)NC(=O)[C@H](CO)NC(=O)[C@H](CO)NC(=O)[C@H](Cc1c[nH]cn1)NC(=O)[C@@H](NC(=O)[C@H](CC(C)C)NC(=O)[C@H](Cc1ccccc1)NC(=O)[C@H](CCC(=O)O)NC(=O)[C@H](C)NC(=O)[C@H](CC(C)C)NC(=O)[C@H](CCCNC(=N)N)NC(=O)[C@H](CCC(N)=O)NC(=O)[C@@H](NC(=O)[C@H](C)NC(=O)[C@@H]1CSSC[C@H](NC(=O)[C@@H](N)CCCCN)C(=O)N[C@@H](CC(N)=O)C(=O)N[C@@H]([C@@H](C)O)C(=O)N[C@@H](C)C(=O)N[C@@H]([C@@H](C)O)C(=O)N1)[C@@H](C)O)C(C)C)C(=O)N[C@@H](CC(C)C)C(=O)N1CCC[C@H]1C(=O)N1CCC[C@H]1C(=O)N[C@H](C(=O)N[C@@H](CC(N)=O)C(=O)N[C@H](C(=O)NCC(=O)N[C@@H](CO)C(=O)N[C@@H](CC(N)=O)C(=O)N[C@H](C(=O)N[C@@H](Cc1ccc(O)cc1)C(N)=O)[C@@H](C)O)C(C)C)[C@@H](C)O [Example 126] (H-KCNTATCATQRLAEFLVHSSNNFGK([AEEA-AEEA-γGlu-C18 diacid])ILPPTNVGSNTY-NH2; disulfide 2-7 (inferred); N-terminus and C-terminus assumed)
EC50 [1, 7]: 0.076 nM
EC50 [2, 8]: 0.101 nM

CC(C)C[C@H](NC(=O)[C@H](CCCNC(=N)N)NC(=O)[C@H](CCC(N)=O)NC(=O)[C@@H](NC(=O)[C@H](C)NC(=O)[C@@H]1CSSC[C@H](NC(=O)[C@@H](N)CCCCNC(=O)CC[C@H](NC(=O)CCCCCCCCCCCCCCCCCCC(=O)O)C(=O)O)C(=O)N[C@@H](CC(N)=O)C(=O)N[C@@H]([C@@H](C)O)C(=O)N[C@@H](C)C(=O)N[C@@H]([C@@H](C)O)C(=O)N1)[C@@H](C)O)C(=O)N[C@@H](C)C(=O)N[C@@H](CCC(=O)O)C(=O)N[C@@H](Cc1ccccc1)C(=O)N[C@@H](CC(C)C)C(=O)N[C@@H](Cc1c[nH]cn1)C(=O)N[C@@H](Cc1c[nH]cn1)C(=O)N[C@@H](CO)C(=O)N[C@@H](CO)C(=O)N[C@@H](CCC(N)=O)C(=O)N[C@@H](CC(N)=O)C(=O)N[C@@H](Cc1ccccc1)C(=O)NCC(=O)N[C@@H](C)C(=O)N1CCC[C@H]1C(=O)N[C@@H](CC(C)C)C(=O)N[C@@H](CO)C(=O)N[C@@H](CO)C(=O)N[C@H](C(=O)N[C@@H](CC(N)=O)C(=O)N[C@H](C(=O)NCC(=O)N[C@@H](CO)C(=O)N[C@@H](CC(N)=O)C(=O)N[C@H](C(=O)N1CCC[C@H]1C(N)=O)[C@@H](C)O)C(C)C)[C@@H](C)O [Example 151, N-epsilon1-[(S)-4-Carboxy-4-(19-carboxynonadecanoylamino)butyryl]-[Glu14,His17,Gln21,Ala25,Pro26,Ser28,Ser29,Pro37]-pramlintide] (H-K([γGlu-C20 diacid])CNTATCATQRLAEFLHHSSQNFGAPLSSTNVGSNTP-NH2; disulfide 2-7 (inferred); N-terminus assumed)
EC50 [1]: 0.209 nM
EC50 ([1]; Table 4): 0.209 nM
EC50 ([1]; Table 6, human amylin receptor): 0.209 nM
EC50 ([1]; Table 7, human amylin receptor): 0.209 nM
EC50 [1, 7]: 0.209 nM
EC50 [2, 6]: 0.0675 nM
EC50 [2, 8]: 0.0675 nM
solubility at 18 h ([5]; bistrispropane buffer, pH 6.5, read-out: Solubility): > 200 µM
solubility at 18 h ([5]; bistrispropane buffer, pH 7.5, read-out: Solubility): > 200 µM
solubility at 18 h ([5]; bistrispropane buffer, pH 6.0, read-out: Solubility): > 200 µM
solubility at 18 h ([5]; bistrispropane buffer, pH 7.0, read-out: Solubility pH 7.0): > 200 µM
solubility at 18 h ([5]; bistrispropane buffer, pH 8.0, read-out: Solubility): > 200 µM
solubility at 18 h ([5]; glycylglycine buffer, pH 3.0, read-out: Solubility): > 200 µM
solubility at 18 h ([5]; glycylglycine buffer, pH 4.0, read-out: Solubility pH 4.0): > 200 µM
solubility at 18 h ([5]; glycylglycine buffer, pH 5.0, read-out: Solubility): > 200 µM
solubility at 18 h ([5]; pH 4.0, read-out: Solubility): >200 µM
solubility at 18 h ([5]; pH 7.0, read-out: Solubility): >200 µM
